# Measurements published in PubChem BioAssay (NCI).
#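 Each compound was tested at five concentrations against cells in 96-well plates for 48 hours. TGI marks complete inhibition of growth.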
# Experiments:
# Test in all cases: DTP human tumour cell line panel, 48 h
# MCF7 breast = system: MCF7 breast
# KM12 colon = system: KM12 colon
# COLO 205 colon = system: COLO 205 colon
# OVCAR-8 ovarian = system: OVCAR-8 ovarian
# K-562 leukemia = system: K-562 leukemia
# SNB-75 CNS = system: SNB-75 CNS
# SR leukemia = system: SR leukemia
# HCT-15 colon = system: HCT-15 colon
# CAKI-1 renal = system: CAKI-1 renal
# MDA-N = system: MDA-N
# SN12C renal = system: SN12C renal
# MALME-3M melanoma = system: MALME-3M melanoma
# MDA-MB-435 = system: MDA-MB-435
# SW-620 colon = system: SW-620 colon
# IGROV1 ovarian = system: IGROV1 ovarian
# BT-549 breast = system: BT-549 breast
# OVCAR-3 ovarian = system: OVCAR-3 ovarian
# HT29 colon = system: HT29 colon
# A498 renal = system: A498 renal
# SF-268 CNS = system: SF-268 CNS
# NCI-H226 lung = system: NCI-H226 lung
# HOP-92 NSCLC = system: HOP-92 NSCLC
# T-47D breast = system: T-47D breast
# SK-OV-3 ovarian = system: SK-OV-3 ovarian
# NCI-H460 lung = system: NCI-H460 lung
# NCI/ADR-RES ovarian = system: NCI/ADR-RES ovarian
# SK-MEL-2 melanoma = system: SK-MEL-2 melanoma
# TK-10 renal = system: TK-10 renal
# SF-539 CNS = system: SF-539 CNS
# MDA-MB-231 breast = system: MDA-MB-231 breast
# 786-0 renal = system: 786-0 renal
# RXF 393 renal = system: RXF 393 renal
# HOP-62 NSCLC = system: HOP-62 NSCLC
# MOLT-4 leukemia = system: MOLT-4 leukemia
# SNB-19 CNS = system: SNB-19 CNS
# SK-MEL-5 melanoma = system: SK-MEL-5 melanoma
# ACHN renal = system: ACHN renal
# SK-MEL-28 melanoma = system: SK-MEL-28 melanoma
# LOX IMVI melanoma = system: LOX IMVI melanoma
# OVCAR-4 ovarian = system: OVCAR-4 ovarian
# U251 CNS = system: U251 CNS
# A549 NSCLC = system: A549 NSCLC
# DU-145 prostate = system: DU-145 prostate
# NCI-H23 lung = system: NCI-H23 lung
# RPMI-8226 leukemia = system: RPMI-8226 leukemia
# UACC-257 melanoma = system: UACC-257 melanoma
# M14 melanoma = system: M14 melanoma
# PC-3 prostate = system: PC-3 prostate
# UO-31 renal = system: UO-31 renal
# HCT-116 colon = system: HCT-116 colon
# SF-295 CNS = system: SF-295 CNS
# HL-60(TB) leukemia = system: HL-60(TB) leukemia
# UACC-62 melanoma = system: UACC-62 melanoma
# OVCAR-5 ovarian = system: OVCAR-5 ovarian
# HS 578T breast = system: HS 578T breast
# NCI-H522 lung = system: NCI-H522 lung
# EKVX NSCLC = system: EKVX NSCLC
# CCRF-CEM leukemia = system: CCRF-CEM leukemia
compound,measurement,setting,value
Clc1cccc(Cl)c1C(Nc1nncs1)Nc1nncs1,TGI,MCF7 breast,> 100 µM
same,TGI,KM12 colon,> 100 µM
same,TGI,COLO 205 colon,> 100 µM
same,TGI,OVCAR-8 ovarian,> 100 µM
same,TGI,K-562 leukemia,> 100 µM
same,TGI,SNB-75 CNS,> 100 µM
same,TGI,SR leukemia,> 100 µM
same,TGI,HCT-15 colon,> 100 µM
same,TGI,CAKI-1 renal,> 100 µM
same,TGI,MDA-N,25.5 µM
same,TGI,SN12C renal,> 100 µM
same,TGI,MALME-3M melanoma,> 100 µM
same,TGI,MDA-MB-435,60.6 µM
same,TGI,SW-620 colon,> 100 µM
same,TGI,IGROV1 ovarian,> 100 µM
same,TGI,BT-549 breast,> 100 µM
same,TGI,OVCAR-3 ovarian,> 100 µM
same,TGI,HT29 colon,> 100 µM
same,TGI,A498 renal,> 100 µM
same,TGI,SF-268 CNS,> 100 µM
same,TGI,NCI-H226 lung,99.7 µM
same,TGI,HOP-92 NSCLC,> 100 µM
same,TGI,T-47D breast,> 100 µM
same,TGI,SK-OV-3 ovarian,> 100 µM
same,TGI,NCI-H460 lung,68.5 µM
same,TGI,NCI/ADR-RES ovarian,> 100 µM
same,TGI,SK-MEL-2 melanoma,> 100 µM
same,TGI,TK-10 renal,84.1 µM
same,TGI,SF-539 CNS,> 100 µM
same,TGI,MDA-MB-231 breast,> 100 µM
same,TGI,786-0 renal,> 100 µM
same,TGI,RXF 393 renal,> 100 µM
same,TGI,HOP-62 NSCLC,> 100 µM
same,TGI,MOLT-4 leukemia,> 100 µM
same,TGI,SNB-19 CNS,> 100 µM
same,TGI,SK-MEL-5 melanoma,> 100 µM
same,TGI,ACHN renal,> 100 µM
same,TGI,SK-MEL-28 melanoma,54.5 µM
same,TGI,LOX IMVI melanoma,> 100 µM
same,TGI,OVCAR-4 ovarian,> 100 µM
same,TGI,U251 CNS,> 100 µM
same,TGI,A549 NSCLC,> 100 µM
same,TGI,DU-145 prostate,> 100 µM
same,TGI,NCI-H23 lung,> 100 µM
same,TGI,RPMI-8226 leukemia,> 100 µM
same,TGI,UACC-257 melanoma,71.1 µM
same,TGI,M14 melanoma,> 100 µM
same,TGI,PC-3 prostate,> 100 µM
same,TGI,UO-31 renal,> 100 µM
same,TGI,HCT-116 colon,> 100 µM
same,TGI,SF-295 CNS,> 100 µM
same,TGI,HL-60(TB) leukemia,43.9 µM
same,TGI,UACC-62 melanoma,> 100 µM
same,TGI,OVCAR-5 ovarian,> 100 µM
same,TGI,HS 578T breast,> 100 µM
same,TGI,NCI-H522 lung,70.9 µM
same,TGI,EKVX NSCLC,> 100 µM
O=C1Nc2ccccc2S/C1=C\c1ccc(C(F)(F)F)cc1,TGI,MCF7 breast,> 100 µM
same,TGI,KM12 colon,> 100 µM
same,TGI,COLO 205 colon,> 100 µM
same,TGI,OVCAR-8 ovarian,> 100 µM
same,TGI,K-562 leukemia,> 100 µM
same,TGI,SNB-75 CNS,> 100 µM
same,TGI,SR leukemia,> 100 µM
same,TGI,HCT-15 colon,> 100 µM
same,TGI,CAKI-1 renal,93.3 µM
same,TGI,MDA-N,> 100 µM
same,TGI,SN12C renal,> 100 µM
same,TGI,MALME-3M melanoma,> 100 µM
same,TGI,MDA-MB-435,> 100 µM
same,TGI,SW-620 colon,> 100 µM
same,TGI,IGROV1 ovarian,> 100 µM
same,TGI,BT-549 breast,> 100 µM
same,TGI,OVCAR-3 ovarian,> 100 µM
same,TGI,HT29 colon,> 100 µM
same,TGI,A498 renal,> 100 µM
same,TGI,SF-268 CNS,> 100 µM
same,TGI,NCI-H226 lung,> 100 µM
same,TGI,HOP-92 NSCLC,> 100 µM
same,TGI,T-47D breast,> 100 µM
same,TGI,SK-OV-3 ovarian,> 100 µM
same,TGI,NCI-H460 lung,> 100 µM
same,TGI,NCI/ADR-RES ovarian,> 100 µM
same,TGI,SK-MEL-2 melanoma,> 100 µM
same,TGI,TK-10 renal,> 100 µM
same,TGI,SF-539 CNS,> 100 µM
same,TGI,MDA-MB-231 breast,> 100 µM
same,TGI,786-0 renal,> 100 µM
same,TGI,RXF 393 renal,> 100 µM
same,TGI,HOP-62 NSCLC,> 100 µM
same,TGI,MOLT-4 leukemia,> 100 µM
same,TGI,SNB-19 CNS,> 100 µM
same,TGI,SK-MEL-5 melanoma,> 100 µM
same,TGI,ACHN renal,> 100 µM
same,TGI,SK-MEL-28 melanoma,> 100 µM
same,TGI,LOX IMVI melanoma,> 100 µM
same,TGI,OVCAR-4 ovarian,> 100 µM
same,TGI,U251 CNS,> 100 µM
same,TGI,A549 NSCLC,> 100 µM
same,TGI,DU-145 prostate,> 100 µM
same,TGI,RPMI-8226 leukemia,> 100 µM
same,TGI,UACC-257 melanoma,> 100 µM
same,TGI,M14 melanoma,> 100 µM
same,TGI,PC-3 prostate,> 100 µM
same,TGI,UO-31 renal,> 100 µM
same,TGI,HCT-116 colon,> 100 µM
same,TGI,SF-295 CNS,> 100 µM
same,TGI,HL-60(TB) leukemia,> 100 µM
same,TGI,UACC-62 melanoma,> 100 µM
same,TGI,OVCAR-5 ovarian,> 100 µM
same,TGI,HS 578T breast,> 100 µM
same,TGI,NCI-H522 lung,> 100 µM
same,TGI,EKVX NSCLC,> 100 µM
CC(NC(=O)CNP(=O)(c1ccccc1)c1ccccc1)C(=O)NC(Cc1ccccc1)C(=O)OCc1ccccc1 (stereo not drawn),TGI,MCF7 breast,55 µM
same,TGI,KM12 colon,> 100 µM
same,TGI,COLO 205 colon,> 10 µM
same,TGI,OVCAR-8 ovarian,> 100 µM
same,TGI,K-562 leukemia,> 10 µM
same,TGI,SNB-75 CNS,48.5 µM
same,TGI,SR leukemia,70.8 µM
same,TGI,HCT-15 colon,> 100 µM
same,TGI,CCRF-CEM leukemia,> 10 µM
same,TGI,CAKI-1 renal,> 100 µM
same,TGI,MDA-N,> 100 µM
same,TGI,SN12C renal,> 100 µM
same,TGI,MALME-3M melanoma,> 100 µM
same,TGI,MDA-MB-435,> 100 µM
same,TGI,SW-620 colon,> 100 µM
same,TGI,IGROV1 ovarian,> 100 µM
same,TGI,BT-549 breast,> 100 µM
same,TGI,OVCAR-3 ovarian,> 100 µM
same,TGI,HT29 colon,> 100 µM
same,TGI,A498 renal,> 100 µM
same,TGI,SF-268 CNS,57.2 µM
same,TGI,NCI-H226 lung,> 100 µM
same,TGI,HOP-92 NSCLC,> 100 µM
same,TGI,T-47D breast,> 100 µM
same,TGI,SK-OV-3 ovarian,51.3 µM
same,TGI,NCI/ADR-RES ovarian,> 100 µM
same,TGI,SK-MEL-2 melanoma,> 100 µM
same,TGI,TK-10 renal,> 100 µM
same,TGI,SF-539 CNS,> 100 µM
same,TGI,MDA-MB-231 breast,96.6 µM
same,TGI,786-0 renal,48.1 µM
same,TGI,RXF 393 renal,75.5 µM
same,TGI,HOP-62 NSCLC,> 100 µM
same,TGI,MOLT-4 leukemia,47.1 µM
same,TGI,SNB-19 CNS,> 100 µM
same,TGI,SK-MEL-5 melanoma,60.5 µM
same,TGI,SK-MEL-28 melanoma,49.3 µM
same,TGI,LOX IMVI melanoma,87.8 µM
same,TGI,U251 CNS,62.3 µM
same,TGI,A549 NSCLC,> 100 µM
same,TGI,DU-145 prostate,> 100 µM
same,TGI,NCI-H23 lung,> 100 µM
same,TGI,RPMI-8226 leukemia,98.5 µM
same,TGI,UACC-257 melanoma,> 100 µM
same,TGI,M14 melanoma,> 100 µM
same,TGI,PC-3 prostate,> 100 µM
same,TGI,UO-31 renal,> 100 µM
same,TGI,HCT-116 colon,> 100 µM
same,TGI,SF-295 CNS,42.5 µM
same,TGI,HL-60(TB) leukemia,> 100 µM
same,TGI,UACC-62 melanoma,> 100 µM
same,TGI,OVCAR-5 ovarian,> 100 µM
same,TGI,HS 578T breast,> 100 µM
same,TGI,NCI-H522 lung,49.8 µM
same,TGI,EKVX NSCLC,> 100 µM
